From patent US20230201173A1, “SMAD4 Complex Inducers and Uses in Cancer Therapy” (Emory University, priority 2021, published 2023)
Where a chain is given by its changes, count along the chain named.

B1: His-SMAD4WT, Q13485 1-552 (protein, not shown: small tags and cut ends)
chain: MDNMSITNTPTSNDACLSIVHSLMCHRQGGESETFAKRAIESLVKKLKEKKDELDSLITAITTNGAHPSKCVTIQRTLDGRLQVAGRKGFPHVIYARLWRWPDLHKNELKHVKYCQYAFDLKCDSVCVNPYHYERVVSPGIDLSGLTLQSNAPSSMMVKDEYVHDFEGQPSLSTEGHSIQTIQHPPSNRASTETYSTPALLAPSESNATSTANFPNIPVASTSQPASILGGSHSEGLLQIASGPQPGQQQNGFTGQPATYHHNSTTTWTGSRTAPYTPNLPHHQNGHLQHHPPMPPHPGHYWPVHNELAFQPPISNHPAPEYWCSIAYFEMDVQVGETFKVPSSCPIVTVDGYVDPSGGDRFCLGQLSNVHRTEAIERARLHIGKGVQLECKGEGDVWVRCLSDHAVFVQSYYLDREAGRAPGDAVHKIYPSAYIKVFDLRQCHRQMQQQAATAQAAAAAQAAAVAGNIPGPGSVGGIAPAISLSAAAGIGVDDLRRLCILRMSFVKGWGPDYPRQSIKETPCWIEIHLHRALQLLDEVLHTMPIADPQPLD
B2: His-SMAD4R361H, Q13485 1-552 (protein, not shown: small tags and cut ends)
chain: B1 chain with R361H

What was measured:
[1] = molecular target: T1, His-SMAD4R361H/Flag-SMAD3 PPI (Homo sapiens, UniProt Q13485, R361H); experiment: TR-FRET assay of the SMAD4R361H/SMAD3 protein-protein interaction in cell lysate; format: binding; conditions: dose-response, read-out: EC50, increase of the TR-FRET signal of SMAD4R361H-SMAD3 PPI
T1 construct: expressed in transfected cells; host or cells: HEK293T

SMAD4R361H-SMAD3 complex = molecular target: T2, SMAD4R361H-SMAD3 complex (Homo sapiens, UniProt Q13485, R361H); experiment: GST beads pull-down assay of SMAD4R361H-SMAD3 complex formation; format: binding; conditions: cell lysate treated with compound, read-out: EC50, amount of SMAD3 in the SMAD4R361H complex
T2 construct: expressed in transfected cells

SMAD4D351H-SMAD3 PPI = molecular target: T3, SMAD4D351H-SMAD3 PPI (Homo sapiens, UniProt Q13485, D351H); experiment: GST pull-down assay of SMAD4D351H-SMAD3 complex formation; format: binding; conditions: DMSO as control
T3 construct: expressed in transfected cells
Text: To evaluate the mutation selectivity of Ro-31-8220 and Go-6983, their potentiation effect on other SMAD4 loss-of-function mutations, such as D351H, was examined. The PPI between SMAD3 and SMAD4D351H was studied in the presence of these compounds with DMSO as a control.

[2] = system: SMAD4R361H with R-SMADs (SMAD3, SMAD2, SMAD1, SMAD5, SMAD8); experiment: TR-FRET assay of SMAD4R361H with different R-SMAD isoforms; format: binding, Homo sapiens; conditions: for R-SMAD selectivity in inducing the interaction of SMAD4R361H with SMAD3 and SMAD2: among all the tested R-SMADs; for compound-induced TR-FRET signal for SMAD4R361H interaction with SMAD3 versus other R-SMADs: compound titration
Procedure: To determine the R-SMADs selectivity of Ro-31-8220 and Go-6983, experiments were performed to determine their effects on inducing PPI between SMAD4R361H and different isoforms of R-SMADs using the TR-FRET assay.

[3] = system: HCT116 cells (WT), SMAD4 knockout (null) and R361H isogenic cells; experiment: Cell viability (CellTiter-Blue) in isogenic colon cancer cells; format: cell-based; conditions: Ro-31-8220 1 μM
Procedure: HCT116 cells (WT) and corresponding SMAD4 knockout (null) or R361H, isogenic cells were treated with TGF-β (10 ng/mL), Ro-31-8220 (1 μM), Go-6983 (10 μM), or in combination as indicated. The cell viability after treatment was measured using the CellTiter-Blue™ reagent and normalized to the untreated vehicle or DMSO controls (% C).
(§1) Experiments indicate that Ro-31-8220 is capable of restoring the SMAD4mut/SMAD3 PPI and the tumor-suppressive TGF-β signaling in the SMAD4 mutation cells. Experiments were also performed to determine whether Ro-31-8220 can promote TGF-β-evoked anti-proliferation function in cancer cells with SMAD4 missense mutations. Three functional assays were performed to measure the effect of Ro-31-8220 on cell-cycle progression, cell proliferation, and colony formation with WT and isogenic SMAD4 mutant colon cancer cells.
Thus, the effect of Ro-31-8220 on TGF-β-regulated cell proliferation was examined in the context of the SMAD4 mutation. TGF-β induced a significant decrease of cell viability of SMAD4 WT cells, while the isogenic SMAD4 null or R361H cells were resistant to such TGF-β-induced growth suppression (FIG. 3B).

[4] = system: HCT116 isogenic SMAD4 R361H cells; experiment: Colony formation assay; format: cell-based; conditions: TGF-β 10 ng/mL; Ro-31-8220 1 μM, Go-6983 10 μM
Procedure: Parental HCT116 (WT) and isogenic R361H cells were treated with TGF-β (10 ng/mL), Ro-31-8220 (1 μM), Go-6983 (10 μM), or in combination as indicated.
as §1
The lost tumor suppressor function of mutated SMAD4, R361H, can be recapitulated in an in vitro tumorigenic assay. Colon cancer HCT116 cells with WT and their isogenic mutant SMAD4 cells can grow into large colonies.

[5] = system: HCT116 isogenic SMAD4 R361H cells; experiment: Flow cytometry-based cell-cycle analysis (G1/S phase); conditions: TGF-β 10 ng/mL; Ro-31-8220 1 μM, Go-6983 10 μM
Procedure: Parental HCT116 (WT) and isogenic R361H cells were treated with TGF-β (10 ng/mL), Ro-31-8220 (1 μM), Go-6983 (10 μM), or in combination as indicated. The percentage of cells staying in G1/S phase was determined by flow cytometry.
as §1

R361H cells = experiment: Transcriptional response to TGF-β (pro-apoptotic and pro-autophagy genes); format: cell-based
Flag-SMAD3, P84022 = experiment: TR-FRET, HEK293T cell lysate, anti-Flag-Tb / anti-His-D2; conditions: remark: other sources report otherwise
Sequence of Flag-SMAD3, P84022 (P84022 whole entry): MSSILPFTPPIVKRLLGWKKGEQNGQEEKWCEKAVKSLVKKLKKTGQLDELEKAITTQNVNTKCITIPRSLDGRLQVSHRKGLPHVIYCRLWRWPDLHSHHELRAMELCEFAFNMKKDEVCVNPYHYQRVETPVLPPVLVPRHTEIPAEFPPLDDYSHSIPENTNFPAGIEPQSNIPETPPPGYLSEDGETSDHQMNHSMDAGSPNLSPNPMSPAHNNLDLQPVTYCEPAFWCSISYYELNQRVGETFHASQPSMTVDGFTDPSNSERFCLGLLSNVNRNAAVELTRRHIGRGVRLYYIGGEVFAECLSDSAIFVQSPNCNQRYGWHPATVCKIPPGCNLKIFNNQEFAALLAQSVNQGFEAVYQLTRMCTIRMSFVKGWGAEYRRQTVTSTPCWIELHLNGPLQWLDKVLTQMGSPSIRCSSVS

T3 sequence (Q13485 whole entry D351H): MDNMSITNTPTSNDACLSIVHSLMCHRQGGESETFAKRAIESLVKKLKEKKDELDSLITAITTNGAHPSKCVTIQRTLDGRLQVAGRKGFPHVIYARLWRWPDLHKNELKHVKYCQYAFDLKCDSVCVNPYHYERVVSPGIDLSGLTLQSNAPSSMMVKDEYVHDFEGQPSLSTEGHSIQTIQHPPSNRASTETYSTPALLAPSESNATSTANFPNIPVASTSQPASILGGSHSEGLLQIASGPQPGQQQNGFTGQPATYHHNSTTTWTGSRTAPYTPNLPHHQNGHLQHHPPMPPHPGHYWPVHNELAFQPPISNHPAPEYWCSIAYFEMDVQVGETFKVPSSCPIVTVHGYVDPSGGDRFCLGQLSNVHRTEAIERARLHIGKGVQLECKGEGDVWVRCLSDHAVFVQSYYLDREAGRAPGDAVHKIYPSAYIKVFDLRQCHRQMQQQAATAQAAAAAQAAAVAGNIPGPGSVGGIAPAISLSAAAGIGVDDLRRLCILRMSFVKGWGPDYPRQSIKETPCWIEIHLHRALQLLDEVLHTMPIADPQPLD
T3 sequence (P84022 whole entry partner): as the sequence (P84022 whole entry) above
T2 sequence (Q13485 whole entry R361H): as the sequence (Q13485 whole entry D351H) above, with H351D, R361H counted along it
T2 sequence (P84022 whole entry partner): as the sequence (P84022 whole entry) above
T1 sequence (Q13485 whole entry R361H): as the sequence (Q13485 whole entry D351H) above, with H351D, R361H counted along it
T1 sequence (P84022 whole entry partner): as the sequence (P84022 whole entry) above

signal-to-background ratio (Flag-SMAD3, P84022)	Molecule	EC50 [1]	EC50 (SMAD4R361H-SMAD3 complex)	SMAD3 level in the D351H GST pull-down complex (SMAD4D351H-SMAD3 PPI)	R-SMAD selectivity in inducing the interaction of SMAD4R361H with SMAD3 and SMAD2 [2]	compound-induced TR-FRET signal for SMAD4R361H interaction with SMAD3 versus other R-SMADs [2]	combination with TGF-β in inhibiting cell viability ([3]; TGF-β 10 ng/mL, Go-6983 10 μM)	combination with TGF-β in inhibiting colon cancer cell colony formation [4]	sensitivity of R361H cells to TGF-β-induced G1/S cell-cycle arrest [5]	sensitivity of SMAD4 R361H cells to TGF-β-induced growth suppression ([3]; R361H cells, TGF-β 10 ng/mL, Go-6983 10 μM)	growth inhibition by compound treatment alone ([3]; SMAD4 WT, null and R361H cells)	colony area of R361H cells, sensitivity to TGF-β-induced inhibition of colony formation [4]	transcriptional response of R361H cells to TGF-β (R361H cells)
	COc1ccc2c(c1)c(C1=C(c3c[nH]c4ccccc34)C(=O)NC1=O)cn2CCCN(C)C [Go-6983, 3-(1-(3-(dimethylamino)propyl)-5-methoxy-1H-indol-3-yl)-4-(1H-indol-3-yl)-1H-pyrrole-2,5-dione]	15.2 ± 2.9 µM	8.9 ± 0.7 µM	significantly restored	selective	significantly higher	synergistic effect	synergistic effect					
	Cn1cc(C2=C(c3cn(CCCSC(=N)N)c4ccccc34)C(=O)NC2=O)c2ccccc21 [Ro-31-8220, 3-(3-(4-(1-methyl-1H-indol-3-yl)-2,5-dioxo-2,5-dihydro-1H-pyrrol-3-yl)-1H-indol-1-yl)propyl carbamimidothioate]	3.9 ± 1 µM	2.1 ± 0.7 µM	significantly restored	selective	significantly higher	synergistic effect	synergistic effect	regained sensitivity	restored the sensitivity	did not result in any significant growth inhibition	significantly decreased colony area	restored the transcriptional response
30 fold	B1												
10 fold	B2												
